From publication PMC9664868, “Dephospho-Coenzyme A Kinase Is an Exploitable Drug Target against Plasmodium falciparum: Identification of Selective Inhibitors by High-Throughput Screening of a Large Chemical Compound Library” (Antimicrobial Agents and Chemotherapy, 2022)
Where two headings read alike, the source gives them in different places.

Experiments:
[1] = test system: P. falciparum drug-resistant Dd2 strain; test: Erythrocytic-stage parasite growth inhibition, diaphorase-coupled LDH assay, Dd2; assay type: cell-based, Plasmodium falciparum
Protocol: (§1) Selected hit compounds were also tested against erythrocytic-stage parasites of P. falciparum drug-sensitive 3D7 and drug-resistant Dd2 strains ([39]). For the phenotypic assay, parasite cultures were synchronized with 5% (wt/vol) D-sorbitol as previously described ([40]). A synchronized culture containing ring-stage parasites of 0.3% parasitemia was initiated with a culture volume of 25 μL/well on a 384-well plate. A series of diluted compounds (at final concentrations of 50, 10, 2, 0.4, and 0.08 μM) were used to calculate IC50 values. Mefloquine at 50 μM and atovaquone at 20 μM were used as no-growth control (100% inhibition). After 72 h of incubation, parasite growth was measured by diaphorase-coupled lactate dehydrogenase (LDH) assay as previously described ([41]). Absorbance at 650 nm was measured using SpectraMax Paradigm multimode microplate reader (Molecular Devices, San Jose, CA, USA). The IC50 values were calculated as described above.

[2] = test system: HepG2 cell line; test: Cytotoxicity assay (Cell Counting Kit-8); assay type: cell-based, human
Protocol: Cytotoxicity against human cells was evaluated using the human liver carcinoma HepG2 cell line. HepG2 cells were cultured in D-MED supplemented with 4 mM L-glutamine and 10% fetal bovine serum (FBS) in a 75-cm^2 flask (Violamo) at 37°C. For the cytotoxicity assay, HepG2 cells in semiconfluent state were detached from the flask by incubating the cells with 5 mL D-MEM containing 0.25% trypsin-EDTA. After detachment, HepG2 cells were resuspended in D-MEM-supplemented L-glutamine and FBS, and cell viability was evaluated by incubating cells with 0.4% Trypan blue on a hemocytometer. An approximately 50-μL suspension containing 3,000 cells was dispensed into each well on a 384-well clear-bottom plate using a Multidrop Combi dispenser. Compounds dissolved in DMSO had been dispensed into wells to yield final concentrations of 100, 20, 4, 0.8, and 0.2 μM before cells were added. After cells were added to the plates, they were cultured at 37°C under 5% CO2. After 48 h cultivation, 5 μL of Cell Counting Kit-8 (Dojindo, Japan) was added, and the plates were further incubated for 2 h to assess cell growth and survival.

[3] = test system: P. falciparum drug-sensitive 3D7 strain; test: Erythrocytic-stage parasite growth inhibition, diaphorase-coupled LDH assay, 3D7; assay type: cell-based, Plasmodium falciparum; settings: for Selectivity index IC50 (HepG2/3D7): HepG2 IC50 / 3D7 IC50
Protocol: as §1

[4] = target: PfDPCK (Plasmodium falciparum, UniProt Q8IL34); test: PfDPCK inhibition, enzyme-coupled fluorescence ADP detection assay (HTS and IC50 determination); assay type: biochemical
PfDPCK, sequence (Q8IL34 entry or part of it): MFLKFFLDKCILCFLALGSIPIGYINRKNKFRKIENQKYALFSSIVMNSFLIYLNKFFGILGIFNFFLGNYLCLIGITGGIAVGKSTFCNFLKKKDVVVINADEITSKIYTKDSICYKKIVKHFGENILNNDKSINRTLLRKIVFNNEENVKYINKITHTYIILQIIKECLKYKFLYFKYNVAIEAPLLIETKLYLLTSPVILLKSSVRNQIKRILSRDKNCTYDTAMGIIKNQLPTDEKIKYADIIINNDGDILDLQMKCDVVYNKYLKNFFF
Protocol: High-throughput screening against recombinant PfDPCK was performed using the Drug Discovery Initiative (DDI) full library, available from The University of Tokyo, composed of approximately 210,000 compounds. The primary assay was performed on 1,536-well white plate format with a final volume of 2 μL/well, containing 10 μM test compounds using a Multidrop Combi reagent dispenser (Thermo Fisher Scientific, Waltham, MA). The reaction was conducted in the assay buffer described above with 100 μM ATP and 50 μM dephospho-CoA. The assay was carried out at room temperature for 4 h in a closed plastic container with wet tissues. The reaction was stopped, and produced ADP was quantified using an enzyme-coupled fluorescence ADP detection assay, using PHERAstar microplate reader (BMG Labtech, Offenburg, Germany) with excitation at 540 nm and emission at 590 nm, as previously described ([17]). The inhibition level was calculated as the percentage inhibition of DPCK activity with each compound compared to the activity with only dimethyl sulfoxide (DMSO) as control (no inhibition) and that with no enzyme as 100% inhibition. IC50 values of the hit compounds were determined under the same assay conditions for the screening: Z′ factor, signal-to-background ratio (S/B), signal-to-noise ratio (S/N), and coefficient of variation (CV) were calculated to estimate the quality of screening system as previously described ([18], [38]).
The primary hits were reassayed in quadruplicate (n = 4) as in the primary screening. We next tested the confirmed secondary hits to exclude false positives that inhibit coupled fluorescence assay, but not PfDPCK. After exclusion of false positives, all tertiary hits were tested against human HsCOASY in the counterassay to exclude compounds that inhibit both PfDPCK and HsCOASY. The compounds showing >10% inhibition against HsCOASY were excluded from further studies. The IC50 values of the hit compounds were determined under the same assay conditions described as above for the primary screening, with the serially diluted compounds at 20, 10, 2.5, 0.5, and 0.1 μM at final concentrations. The assay was conducted in quadruplicate for each dilution, and IC50 values were calculated using GraphPad Software (San Diego, California USA).

[5] = Homo sapiens, HepG2, 48 h, means ± SEMs, read-out: IC50 (μM) of: HepG2
[6] = recombinant enzyme, means ± SEMs, read-out: IC50 (μM) of: PfDPCK
[7] = Plasmodium falciparum, drug-resistant Dd2, 72 h, means ± SEMs, read-out: IC50 (μM) of: Pf cell Dd2
[8] = Plasmodium falciparum, drug-sensitive 3D7, 72 h, means ± SEMs, read-out: IC50 (μM) of: Pf cell 3D7
[9] = Homo sapiens, HepG2, ND (maximum concentration tested 100 μM), read-out: IC50 (μM) of: HepG2
[10] = Table 2, PfDPCK inhibitor scaffolds Gr4, Gr5, Gr8, read-out: IC50
[11] = Plasmodium falciparum, DD2, Table S1, means ± SEM, read-out: IC50 (μM) Pf cell Dd2
[12] = Homo sapiens, HepG2, Table S1, means ± SEM, read-out: IC50 (μM) HepG2
[13] = Plasmodium falciparum, 3D7, Table S1, means ± SEM, read-out: IC50 (μM) Pf cell 3D7
[14] = Plasmodium falciparum, DD2, 72 h, read-out: IC50 (μM) of: Pf cell Dd2
[15] = Homo sapiens, HepG2, read-out: IC50 (μM) of: HepG2
[16] = Plasmodium falciparum, 3D7, 72 h, read-out: IC50 (μM) of: Pf cell 3D7

SMILES	IC50 [4, 6] [µM]	IC50 [1, 7] [nM]	IC50 [3, 8] [nM]	Selectivity index IC50 (HepG2/Dd2) [1]	IC50 [2, 5] [µM]	Selectivity index IC50 (HepG2/3D7) [3]	IC50 [2, 9] [µM]	also measured
O=C1C(O)=C([C@H]2CC[C@H](c3ccc(Cl)cc3)CC2)C(=O)c2ccccc21 [Atovaquone, reference compound]				499,375	79.9 ± 1.79	363,181		IC50 ([1]; Plasmodium falciparum, drug-resistant Dd2, value in nM, read-out: IC50 of: Pf cell Dd2): 0.16 ± 0.028 nM; IC50 ([3]; Plasmodium falciparum, drug-sensitive 3D7, value in nM, read-out: IC50 of: Pf cell 3D7): 0.22 ± 0.03 nM
CNc1nc(NC(C)(C)C)nc(NC(C)(C)C)n1 [Compound A-2]	0.4 ± 0.07	980 ± 500	4430 ± 40	>102	> 100	>23		
CCCn1c(C)cc(-c2csc(NC(=O)C3CC3)n2)c1C [Compound A-4]	0.52 ± 0.09	1590 ± 230	4450 ± 50				> 100	
CCNC(=N)SCc1c(C)c(C)c(C)c(C)c1C [Compound A-7]	1.09 ± 0.03	130 ± 10	1100 ± 110	69.5	9.04 ± 0.01	8.2		
Nc1nc(Nc2cccc(F)c2)nc2ccccc12 [Compound A-13]	1.69 ± 0.05	3400 ± 350	1300 ± 60				> 100	
Cc1ccc(S(=O)(=O)Nc2cc(Cl)c(O)c3ccccc23)c(C)c1 [Compound A-16]	2.09 ± 0.04	230 ± 10	2210 ± 70	171.7	39.6 ± 2.3	17.9		
CCOc1ccc(-n2cc(-c3ccccc3)c3c(NCCN(C)C)ncnc32)cc1 [Compound A-17]								IC50 [4, 10]: 2.15 ± 0.07 µM; IC50 [1, 11]: 2700 ± 440 nM; IC50 [2, 12]: 8.45 ± 0.35 µM; IC50 [3, 13]: 22900 ± 1870 nM
Cc1cc(-c2csc(NC3CC3)n2)c(C)n1CCC1=CCCCC1 [Compound A-19]	2.55 ± 0.03	2650 ± 130	3640 ± 40	30.8	81.5	22.4		
CCOC(=O)C1NC(c2ccc[n+](C)c2)C23c4c5c6c7c8c9c(c%10c%11c2c2c4c4c%12c5c5c6c6c8c8c%13c9c9c%10c%10c%11c%11c2c2c4c4c%12c%12c5c5c6c8c6c8c%13c9c9c%10c%10c%11c2c2c4c4c%12c5c6c5c8c9c%10c2c45)C713 (centres unmarked) [Compound A-22]								IC50 [4]: 3.25 ± 0.02 µM; IC50 [1, 14]: 6320 ± 350 nM; IC50 [2, 15]: > 100 µM; IC50 [3, 16]: 30600 ± 1500 nM
CCOC(=O)CN1C(C(=O)OCC)C23c4c5c6c7c8c9c(c%10c%11c2c2c4c4c%12c5c5c6c6c8c8c%13c9c9c%10c%10c%11c%11c2c2c4c4c%12c%12c5c5c6c8c6c8c%13c9c9c%10c%10c%11c2c2c4c4c%12c5c6c5c8c9c%10c2c45)C73C1c1cc[n+](C)cc1 (centres unmarked) [Compound A-23]								IC50 [4]: 3.31 ± 0.02 µM; IC50 ([1]; drug-resistant Dd2, 72 h, means ± SEMs, read-out: IC50 (μM) of: Pf cell Dd2): 7420 ± 460 nM; IC50 ([2]; ND (maximum concentration tested 100 μM), read-out: IC50 (μM) of: HepG2): > 100 µM; IC50 ([3]; drug-sensitive 3D7, 72 h, means ± SEMs, read-out: IC50 (μM) of: Pf cell 3D7): 4470 ± 120 nM
CC1(C)NC(C(=O)O)C23c4c5c6c7c8c9c(c%10c%11c2c2c4c4c%12c5c5c6c6c8c8c%13c9c9c%10c%10c%11c%11c2c2c4c4c%12c%12c5c5c6c8c6c8c%13c9c9c%10c%10c%11c2c2c4c4c%12c5c6c5c8c9c%10c2c45)C713 (centres unmarked) [Compound A-31]								IC50 [4]: 3.83 ± 0.04 µM; IC50 [1, 14]: 670 ± 20 nM; IC50 [2, 15]: > 100 µM; IC50 [3, 16]: > 50000 nM
Cc1cccc(-n2cc(-c3ccccc3)c3c(NCCOCCO)ncnc32)c1 [Compound A-42]								IC50 [4, 10]: 6.14 ± 0.28 µM; IC50 [1, 11]: 49700 ± 3220 nM; IC50 [2, 12]: 63.2 ± 3.48 µM; IC50 [3, 13]: 38200 ± 2910 nM
O=C(O)C1NC(c2ccncc2)C23c4c5c6c7c8c9c(c%10c%11c2c2c4c4c%12c5c5c6c6c8c8c%13c9c9c%10c%10c%11c%11c2c2c4c4c%12c%12c5c5c6c8c6c8c%13c9c9c%10c%10c%11c2c2c4c4c%12c5c6c5c8c9c%10c2c45)C713 (centres unmarked) [Compound A-45]								IC50 [4]: 6.68 ± 0.24 µM; IC50 [1, 14]: 1290 ± 20 nM; IC50 [2, 15]: > 100 µM; IC50 [3, 16]: 15600 ± 610 nM
Cc1cc(-c2csc(-c3ccsc3)n2)c(C)n1CCCCCC(=O)O [Compound A-96]								IC50 [4, 10]: 14.7 ± 0.28 µM; IC50 [1, 11]: 27700 ± 2600 nM; IC50 [3, 13]: 31000 ± 2100 nM

The next lines start with results.

IC50 [4, 6] [µM]	IC50 [1, 7] [nM]	IC50 [3, 8] [nM]	SMILES	Selectivity index IC50 (HepG2/Dd2) [1]	IC50 [2, 5] [µM]	Selectivity index IC50 (HepG2/3D7) [3]	IC50 [2, 9] [µM]	also measured
3.45 ± 0.07	> 50000	1640 ± 30	Cc1cc(Nc2cc3ccccc3cc2O)n2ncnc2n1 [Compound A-25]				> 100	
3.5 ± 0.04	3410 ± 1220	14450 ± 80	Cc1ccc(-c2nnc(Nc3ccc(O)cc3)c3ccccc23)cc1S(=O)(=O)NCCO [Compound A-26]				> 100	
3.83 ± 0.03	90 ± 60	80 ± 10	CCN(CC)CCn1c(=N)n(CC(=O)c2cc(C(C)(C)C)c(O)c(C(C)(C)C)c2)c2ccccc21 [Compound A-30]	43.5	3.75 ± 3.55	45.1		
4.87 ± 0.05	700 ± 100	29060 ± 200	COc1ccc(NC(C)=O)cc1/N=C/c1cc(Br)cc(Br)c1O [Compound A-38]	>142.8	> 100	>3.4		
6.33 ± 0.11	1750 ± 50	3960 ± 40	Cc1cc(-c2csc(N3CCCC3)n2)c(C)n1-c1c(C)n(C)n(-c2ccccc2)c1=O [Compound A-44]				> 100	
6.99 ± 0.13	6620 ± 1120	> 50000	COC(C(=O)N/N=C/c1ccccc1)c1ccccc1 (centres unmarked) [Compound A-50]				> 100	
7.05 ± 0.08	620 ± 230	15760 ± 120	Cc1cn2c(/C=C3\C(=O)N(C)c4ccccc43)c(C)nc2s1 [Compound A-51]	>166.6	> 100	>6.3		
8.35 ± 0.05	5530 ± 950	34140 ± 40	O=C1NC(=O)/C(=C/c2ccc(C(=O)Nc3ccc(O)cc3C(=O)O)cc2)S1 [Compound A-60]				> 100	
	190 ± 70	13 ± 6	OC(c1cc(C(F)(F)F)nc2c(C(F)(F)F)cccc12)C1CCCCN1 (centres unmarked) [Mefloquine, reference compound]	8.8	1.73 ± 0.7	133		
